According to PubChem BioAssay AID2060904 (Molecular Pharmacology Branch, DTP, NCI, 2025):

System: 349418-098-R-PDC complex spheroid viability
Assay: Anticancer human tumor 349418-098-R-PDC patient-derived lung adenocarcinoma cell line growth inhibition [RAS]
Conditions: for viability, T/C: stronger effect = lower value
Method in brief: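 Agents were tested in combination matrices in half-log decrements from a top concentration at or near clinical Cmax (10 microM if undetermined). Targets were multi-cell spheroids of tumour lines plus HUVEC and MSC stromal cells.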

[1] = curve of first compound, second compound 0.0316 µM
[2] = curve of first compound, second compound 0.1 µM
[3] = curve of first compound, second compound 0.316 µM
[4] = curve of first compound, second compound 1 µM
[5] = second compound 0.0316 µM, first compound 0.0316 µM
[6] = second compound 0.0316 µM, first compound 0.1 µM
[7] = second compound 0.0316 µM, first compound 0.316 µM
[8] = second compound 0.0316 µM, first compound 1 µM
[9] = second compound 0.0316 µM, first compound 3.16 µM
[10] = second compound 0.0316 µM, first compound 10 µM
[11] = second compound 0.1 µM, first compound 0.0316 µM
[12] = second compound 0.1 µM, first compound 0.1 µM
[13] = second compound 0.1 µM, first compound 0.316 µM
[14] = second compound 0.1 µM, first compound 1 µM
[15] = second compound 0.1 µM, first compound 3.16 µM
[16] = second compound 0.1 µM, first compound 10 µM
[17] = second compound 0.316 µM, first compound 0.0316 µM
[18] = second compound 0.316 µM, first compound 0.1 µM
[19] = second compound 0.316 µM, first compound 0.316 µM
[20] = second compound 0.316 µM, first compound 1 µM
[21] = second compound 0.316 µM, first compound 3.16 µM
[22] = second compound 0.316 µM, first compound 10 µM
[23] = second compound 1 µM, first compound 0.0316 µM
[24] = second compound 1 µM, first compound 0.1 µM
[25] = second compound 1 µM, first compound 0.316 µM
[26] = second compound 1 µM, first compound 1 µM
[27] = second compound 1 µM, first compound 3.16 µM
[28] = second compound 1 µM, first compound 10 µM
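Note: spheroids exposed to compound for seven days before viability readout.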

SMILES: NC1c2ccccc2OC12CCN(c1cnc3c(N4CCCc5ncccc54)n[nH]c3n1)CC2 (stereo unspecified) + C=CC(=O)N1CCN(c2nc(OCC3CCCN3C)nc3c(F)c(-c4nc(N)cc(C)c4C(F)(F)F)c(Cl)cc23)C(C)C1
- IC50 (curve of first compound, second compound 0.00316 µM): > 10000 nM
- IC50 (curve of first compound, second compound 0.01 µM): > 10000 nM
- IC50 [1]: > 10000 nM
- IC50 [2]: > 10000 nM
- IC50 [3]: > 10000 nM
- IC50 [4]: > 10000 nM
- viability, T/C (second compound 0.00316 µM, first compound 0.0316 µM): 106%
- viability, T/C (second compound 0.00316 µM, first compound 0.1 µM): 85.4%
- viability, T/C (second compound 0.00316 µM, first compound 0.316 µM): 93.2%
- viability, T/C (second compound 0.00316 µM, first compound 1 µM): 75.5%
- viability, T/C (second compound 0.00316 µM, first compound 3.16 µM): 102%
- viability, T/C (second compound 0.00316 µM, first compound 10 µM): 55.8%
- viability, T/C (second compound 0.01 µM, first compound 0.0316 µM): 113%
- viability, T/C (second compound 0.01 µM, first compound 0.1 µM): 91.4%
- viability, T/C (second compound 0.01 µM, first compound 0.316 µM): 110%
- viability, T/C (second compound 0.01 µM, first compound 1 µM): 72.9%
- viability, T/C (second compound 0.01 µM, first compound 3.16 µM): 93.9%
- viability, T/C (second compound 0.01 µM, first compound 10 µM): 68.5%
- viability, T/C [5]: 114%
- viability, T/C [6]: 100%
- viability, T/C [7]: 67%
- viability, T/C [8]: 86%
- viability, T/C [9]: 82.3%
- viability, T/C [10]: 71.1%
- viability, T/C [11]: 100%
- viability, T/C [12]: 82.5%
- viability, T/C [13]: 83.1%
- viability, T/C [14]: 101%
- viability, T/C [15]: 119%
- viability, T/C [16]: 76.7%
- viability, T/C [17]: 80%
- viability, T/C [18]: 92.7%
- viability, T/C [19]: 92.1%
- viability, T/C [20]: 91.1%
- viability, T/C [21]: 100%
- viability, T/C [22]: 64%
- viability, T/C [23]: 64.5%
- viability, T/C [24]: 89.8%
- viability, T/C [25]: 74%
- viability, T/C [26]: 83.7%
- viability, T/C [27]: 71.2%
- viability, T/C [28]: 69.1%

SMILES: C[C@@H](NC(=O)c1ncnc(N)c1Cl)c1ncc(C(=O)Nc2cc(C(F)(F)F)c(Cl)cn2)s1 + CCn1c(-c2cc(N3CCN(C)CC3)cnc2C(C)OC)c2c3cc(ccc31)-c1csc(n1)CC(NC(=O)C1CC1C)C(=O)N1CCCC(N1)C(=O)OCC(C)(C)C2
- IC50 (curve of first compound, second compound 0.000949 µM): 1340 nM
- IC50 (curve of first compound, second compound 0.003 µM): 1120 nM
- IC50 (curve of first compound, second compound 0.00949 µM): 976 nM
- IC50 (curve of first compound, second compound 0.03 µM): 806 nM
- IC50 (curve of first compound, second compound 0.0949 µM): 687 nM
- IC50 (curve of first compound, second compound 0.3 µM): 915 nM
- viability, T/C (second compound 0.000949 µM, first compound 0.0316 µM): 105%
- viability, T/C (second compound 0.000949 µM, first compound 0.1 µM): 85.8%
- viability, T/C (second compound 0.000949 µM, first compound 0.316 µM): 77.9%
- viability, T/C (second compound 0.000949 µM, first compound 1 µM): 58.2%
- viability, T/C (second compound 0.000949 µM, first compound 3.16 µM): 30.6%
- viability, T/C (second compound 0.000949 µM, first compound 10 µM): 17.3%
- viability, T/C (second compound 0.003 µM, first compound 0.0316 µM): 102%
- viability, T/C (second compound 0.003 µM, first compound 0.1 µM): 93.6%
- viability, T/C (second compound 0.003 µM, first compound 0.316 µM): 72.5%
- viability, T/C (second compound 0.003 µM, first compound 1 µM): 54.5%
- viability, T/C (second compound 0.003 µM, first compound 3.16 µM): 29.7%
- viability, T/C (second compound 0.003 µM, first compound 10 µM): 18.7%
- viability, T/C (second compound 0.00949 µM, first compound 0.0316 µM): 106%
- viability, T/C (second compound 0.00949 µM, first compound 0.1 µM): 90.4%
- viability, T/C (second compound 0.00949 µM, first compound 0.316 µM): 81.1%
- viability, T/C (second compound 0.00949 µM, first compound 1 µM): 49%
- viability, T/C (second compound 0.00949 µM, first compound 3.16 µM): 23.2%
- viability, T/C (second compound 0.00949 µM, first compound 10 µM): 12.5%
- viability, T/C (second compound 0.03 µM, first compound 0.0316 µM): 103%
- viability, T/C (second compound 0.03 µM, first compound 0.1 µM): 88%
- viability, T/C (second compound 0.03 µM, first compound 0.316 µM): 87.4%
- viability, T/C (second compound 0.03 µM, first compound 1 µM): 40%
- viability, T/C (second compound 0.03 µM, first compound 3.16 µM): 23.1%
- viability, T/C (second compound 0.03 µM, first compound 10 µM): 11.4%
- viability, T/C (second compound 0.0949 µM, first compound 0.0316 µM): 102%
- viability, T/C (second compound 0.0949 µM, first compound 0.1 µM): 89.6%
- viability, T/C (second compound 0.0949 µM, first compound 0.316 µM): 79.3%
- viability, T/C (second compound 0.0949 µM, first compound 1 µM): 35%
- viability, T/C (second compound 0.0949 µM, first compound 3.16 µM): 20.2%
- viability, T/C (second compound 0.0949 µM, first compound 10 µM): 11.8%
- viability, T/C (second compound 0.3 µM, first compound 0.0316 µM): 104%
- viability, T/C (second compound 0.3 µM, first compound 0.1 µM): 93.2%
- viability, T/C (second compound 0.3 µM, first compound 0.316 µM): 69.9%
- viability, T/C (second compound 0.3 µM, first compound 1 µM): 51.8%
- viability, T/C (second compound 0.3 µM, first compound 3.16 µM): 23.2%
- viability, T/C (second compound 0.3 µM, first compound 10 µM): 12.5%

SMILES: CC(C)NCC(C(=O)N1CCN(c2ncnc3c2C(C)CC3O)CC1)c1ccc(Cl)cc1 (stereo unspecified) + C#Cc1c(F)ccc2cc(O)cc(-c3ncc4c(N5CC6CCC(C5)N6)nc(OCC56CCCN5CC(F)C6)nc4c3F)c12
- IC50 [1]: 342 nM
- IC50 [2]: 572 nM
- IC50 [3]: 186 nM
- IC50 [4]: 347 nM
- IC50 (curve of first compound, second compound 3.16 µM): 519 nM
- IC50 (curve of first compound, second compound 10 µM): 35 nM
- viability, T/C [5]: 84%
- viability, T/C [6]: 59.1%
- viability, T/C [7]: 60.1%
- viability, T/C [8]: 29.7%
- viability, T/C [9]: 25.2%
- viability, T/C [10]: 9.07%
- viability, T/C [11]: 62.7%
- viability, T/C [12]: 78.9%
- viability, T/C [13]: 68.8%
- viability, T/C [14]: 32.4%
- viability, T/C [15]: 20.9%
- viability, T/C [16]: 11.5%
- viability, T/C [17]: 72.6%
- viability, T/C [18]: 46.6%
- viability, T/C [19]: 51.7%
- viability, T/C [20]: 31.1%
- viability, T/C [21]: 21.5%
- viability, T/C [22]: 8.74%
- viability, T/C [23]: 75%
- viability, T/C [24]: 54.8%
- viability, T/C [25]: 62.9%
- viability, T/C [26]: 28.8%
- viability, T/C [27]: 27.3%
- viability, T/C [28]: 7.4%
- viability, T/C (second compound 3.16 µM, first compound 0.0316 µM): 61.9%
- viability, T/C (second compound 3.16 µM, first compound 0.1 µM): 75.1%
- viability, T/C (second compound 3.16 µM, first compound 0.316 µM): 55.1%
- viability, T/C (second compound 3.16 µM, first compound 1 µM): 39.2%
- viability, T/C (second compound 3.16 µM, first compound 3.16 µM): 19.7%
- viability, T/C (second compound 3.16 µM, first compound 10 µM): 10.7%
- viability, T/C (second compound 10 µM, first compound 0.0316 µM): 60.7%
- viability, T/C (second compound 10 µM, first compound 0.1 µM): 26.3%
- viability, T/C (second compound 10 µM, first compound 0.316 µM): 28.1%
- viability, T/C (second compound 10 µM, first compound 1 µM): 47.3%
- viability, T/C (second compound 10 µM, first compound 3.16 µM): 16.9%
- viability, T/C (second compound 10 µM, first compound 10 µM): 3.22%

SMILES: C[C@@H](NC(=O)c1ncnc(N)c1Cl)c1ncc(C(=O)Nc2cc(C(F)(F)F)c(Cl)cn2)s1
- viability, T/C (compound 0.1 µM): 109% [middle of 4 runs]
- viability, T/C (compound 0.316 µM): 91.3% [middle of 4 runs]
- viability, T/C (compound 1 µM): 64.9% [middle of 4 runs]
- viability, T/C (compound 10 µM): 32% [middle of 4 runs]
- IC50 (curve of compound): 2.13 µM [middle of 4 runs]
